Publication PMC5829251, “NAD^+ analog reveals PARP-1 substrate-blocking mechanism and allosteric communication from catalytic center to DNA-binding domains” (Nature Communications, 2018)
“And” between values parts separate entries of the source, which are not always exact repeats. Identical values can stand only once.

Assays:
Assay type in all cases: binding
[1] = target: T1, PARP-1 double mutant D766/D770A (Homo sapiens, UniProt P09874, D766A/D770A); experiment: DSF, full-length PARP-1 D766/D770A; settings: BAD 1250 μM
T1 construct: Full-length PARP-1 WT (residues 1–1014) was cloned in pET28 vector and site-directed mutagenesis was performed; made in house; host or cells: E. coli
T1 sequence (P09874 whole entry D766A/D770A, the tested form may be a part): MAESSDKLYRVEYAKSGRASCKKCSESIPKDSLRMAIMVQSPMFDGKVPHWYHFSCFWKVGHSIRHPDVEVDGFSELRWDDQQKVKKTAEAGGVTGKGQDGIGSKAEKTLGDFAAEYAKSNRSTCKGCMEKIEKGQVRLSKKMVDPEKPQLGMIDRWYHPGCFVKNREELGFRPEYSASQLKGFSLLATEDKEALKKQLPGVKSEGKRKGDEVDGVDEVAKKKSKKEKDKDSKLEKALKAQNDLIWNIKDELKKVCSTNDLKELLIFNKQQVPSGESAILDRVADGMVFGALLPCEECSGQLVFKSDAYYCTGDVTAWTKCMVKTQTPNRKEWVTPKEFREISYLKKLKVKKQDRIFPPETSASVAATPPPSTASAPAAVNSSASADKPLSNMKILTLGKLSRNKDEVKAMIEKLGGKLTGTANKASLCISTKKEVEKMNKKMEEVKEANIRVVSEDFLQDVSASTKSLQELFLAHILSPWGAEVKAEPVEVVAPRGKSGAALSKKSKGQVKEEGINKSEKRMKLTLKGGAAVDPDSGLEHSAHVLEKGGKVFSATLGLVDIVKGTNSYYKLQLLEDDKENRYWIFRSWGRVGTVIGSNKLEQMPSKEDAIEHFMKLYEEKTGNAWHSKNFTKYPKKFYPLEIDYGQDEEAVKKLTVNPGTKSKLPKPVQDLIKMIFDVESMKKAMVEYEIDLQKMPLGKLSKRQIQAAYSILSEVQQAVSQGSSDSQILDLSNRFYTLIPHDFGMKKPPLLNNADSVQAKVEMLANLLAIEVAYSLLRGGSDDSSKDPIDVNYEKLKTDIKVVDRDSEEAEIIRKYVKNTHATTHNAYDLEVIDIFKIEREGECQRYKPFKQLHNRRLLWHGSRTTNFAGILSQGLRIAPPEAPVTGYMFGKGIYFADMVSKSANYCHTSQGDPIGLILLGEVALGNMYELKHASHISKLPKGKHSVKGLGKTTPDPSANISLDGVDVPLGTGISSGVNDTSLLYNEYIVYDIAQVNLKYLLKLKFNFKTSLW
Description: (§1) DSF experiments were performed as described, [13] using 5 µM protein, 2.5 µM DNA when indicated and various concentrations of compound (BAD, carba-NAD^+, benzamide, and ADP-ribose) as indicated in Fig. 1 and Fig. 3. Experiments were performed on a Roche LightCycler 480 RT-PCR. Reactions including DNA were performed with a 26- or 28-base pair (bp) unphosphorylated oligonucleotide for PARP-1, a 28-bp 5´-phosphorylated (5´P) oligonucleotide for PARP-2, and a 47-bp oligonucleotide including a central 5´P nick for PARP-3^13 in the following buffer: 25 mM Hepes pH 8.0, 150 mM NaCl, 1 mM EDTA, and 0.1 mM TCEP. Reactions with PARP-3 were conducted at lower ionic strength to allow binding to DNA as described (25 mM Hepes pH 8.0, 50 mM NaCl, 1 mM EDTA and 0.1 mM TCEP)[13]. ΔTM values were calculated by subtracting the TM determined for the protein in the absence of compound from the TM determined in the presence of compound. Experiments were performed in triplicate and a Boltzmann sigmoid was fit to the data to determine the TM values (KaleidaGraph).

PARP-1 K633A = target: T2, PARP-1 K633A (Homo sapiens, UniProt P09874, K633A); experiment: DSF, full-length PARP-1 K633A with or without DNA; settings: for TM: Figure 3b, BAD 1250 μM, in °C (unit assumed)
T2 construct: Full-length PARP-1 WT (residues 1–1014) was cloned in pET28 vector and site-directed mutagenesis was performed; made in house; host or cells: E. coli
T2 sequence (P09874 whole entry K633A, the tested form may be a part): as the sequence (P09874 whole entry D766A/D770A, the tested form may be a part) above, with K633A, A766D, A770D counted along it
Description: as §1

full-length PARP-1 WT = target: T3, full-length PARP-1 WT (Homo sapiens, UniProt P09874); experiment: ITC, full-length PARP-1 WT with or without DNA; settings: for KD / Kd: compound 525 μM titrated, 25°C
T3 construct: Full-length PARP-1 WT (residues 1–1014) was cloned in pET28 vector; made in house; host or cells: E. coli
T3 sequence (P09874 whole entry, the tested form may be a part): as the sequence (P09874 whole entry D766A/D770A, the tested form may be a part) above, with A766D, A770D counted along it
Description: (§2) ITC experiments were performed using a MicroCal iTC200 calorimeter (GE Healthcare). BAD or benzamide at 525 μM was titrated into PARP-1 protein (50 μM for CAT WT and CAT ΔHD, 40 μM for full-length PARP-1 WT and mutants) or PARP-1 protein with DNA (20–40 μM) at 25°C. Prior to the experiment, proteins and DNA were dialyzed in 25 mM Hepes pH 8.0, 150 mM NaCl, 1 mM EDTA, and 0.1 mM TCEP. BAD and benzamide were diluted in the dialysis buffer. PARP-1/DNA complexes were assembled and incubated at RT for 30 min prior to performing the experiment. Experiments were typically designed as follows: a first injection of 0.2 μL was followed by 16 injections of 2.5 μL with a spacing of 100 s between injections. Excess heat upon each injection was integrated using an automatically adjusted base line and derived values corrected by heat of dilution. Data analysis and curve fitting were conducted using Origin 7 software. The ITC experiment for each sample was performed either two (PARP-1 WT with benzamide, PARP-1 E763/D766/D770A with benzamide, PARP-1 D766/D770A with BAD) or three times (the remaining eight samples). Table 2 lists the average KD value and stoichiometry (n) for the replicates, and the reported errors are the calculated standard deviations (representing the range of values for experiments repeated two times). We anticipate that the sub-stoichiometric n values for CAT constructs results from either the active fraction being < 100%, or the protein concentration determination being not entirely accurate. The analysis of full-length PARP-1 yielded n values around the expected value of 1.

[2] = target: T4, full-length PARP-1 D766/D770A (Homo sapiens, UniProt P09874, D766A/D770A); experiment: ITC, full-length PARP-1 D766/D770A; settings: for n (stoichiometry): FL D766/D770A; for KD / Kd: FL D766/D770A 40 μM, without DNA, compound 525 μM titrated, 25°C
T4 construct: Full-length PARP-1 WT (residues 1–1014) was cloned in pET28 vector and site-directed mutagenesis was performed; made in house; host or cells: E. coli
T4 sequence (P09874 whole entry D766A/D770A, the tested form may be a part): as the sequence (P09874 whole entry D766A/D770A, the tested form may be a part) above
Description: as §2

[3] = target: T5, full-length PARP-1 E763/D766/D770A (Homo sapiens, UniProt P09874, D766A/D770A/E763A); experiment: ITC, full-length PARP-1 E763/D766/D770A; settings: for n (stoichiometry): FL E763/D766/D770A; for KD / Kd: FL E763/D766/D770A 40 μM, without DNA, compound 525 μM titrated, 25°C
T5 construct: Full-length PARP-1 WT (residues 1–1014) was cloned in pET28 vector and site-directed mutagenesis was performed; made in house; host or cells: E. coli
T5 sequence (P09874 whole entry E763A/D766A/D770A, the tested form may be a part): as the sequence (P09874 whole entry D766A/D770A, the tested form may be a part) above, with E763A counted along it
Description: as §2

PARP-1 WT = target: T6, PARP-1 WT (Homo sapiens, UniProt P09874); experiment: Fluorescence polarization DNA competition assay, PARP-1 WT; settings: 40 nM PARP-1 WT, 20 nM labeled DNA, compound 500 μM, competitor 100 nM
T6 construct: Full-length PARP-1 WT (residues 1–1014) was cloned in pET28 vector; made in house; host or cells: E. coli
T6 sequence (P09874 whole entry, the tested form may be a part): as the sequence (P09874 whole entry D766A/D770A, the tested form may be a part) above, with A766D, A770D counted along it
Description: For the DNA competition assay, 40 nM PARP-1 WT, or PARP-1 ΔHD, was incubated with 20 nM of dumbbell DNA with a central nick carrying an internal fluorescent FAM group (5′-GCT GAG C/FAMT/T CTGGTGAAGCTCAGCTCGCGGCAGCTGGTGCTGCCGCGA-3′) for 30 min at RT in 12 mM Hepes pH 8.0, 60 mM KCl, 8 mM MgCl2, 4% glycerol, 5.7 mM beta-mercaptoethanol, 0.05 mg per ml bovine serm albumin with or without BAD or benzamide (500 μM). A competitor unlabeled DNA of the same sequence was added at 100 nM and FP was measured over time on a VictorV plate reader (Perkin Elmer). For the DNA affinity measurement assay, increasing concentrations of PARP-1 WT were incubated for 30 min at RT with 5 nM of dumbbell DNA probe carrying a nick (described above) in the absence or presence of BAD or benzamide (100 μM) in the following buffer: 12 mM Hepes pH 8.0, 250 mM NaCl, 4% glycerol, 5.7 mM beta-mercaptoethanol, 0.05 mg per ml bovine serum albumin.

Q: NC(=O)c1cccc(C2OC(COP(=O)(O)OP(=O)(O)OCC3OC(n4cnc5c(N)ncnc54)C(O)C3O)C(O)C2O)c1 (centres unmarked) [BAD, benzamide adenine dinucleotide] was tested. Which TM ([1]; Figure 3a, no DNA, TM without BAD 45.94) did it give?
A: 48.5 °C

Q: And the “TM change in the presence of BAD” value ([1]; did not require the presence of DNA)?
A: increase in TM

Q: What about the TM (PARP-1 K633A; K633A with DNA (2.5 μM), TM without BAD 44.76) of the same compound?
A: 44.86

Q: And the TM (PARP-1 K633A; K633A, no DNA, TM without BAD 45.50)?
A: 45.32

Q: And the “TM shift in the presence of BAD and DNA” value (PARP-1 K633A; K633A (Zn3–WGR–HD interface mutation), relative to WT)?
A: substantial reduction in TM shift

Q: What about the KD (full-length PARP-1 WT; FL WT 40 μM, without DNA) of the same compound?
A: no evidence of BAD binding

Q: And the “n (stoichiometry)” value (full-length PARP-1 WT; FL WT with DNA)?
A: 1.11 + /− 0.29

Q: And the Kd (full-length PARP-1 WT; FL WT with DNA (40 μM, 8 bp-duplex))?
A: 1800 nM and 1810 nM

Q: What about the “n (stoichiometry)” value [2] of the same compound?
A: 0.96 + /− 0.10

Q: And the KD [2]?
A: showed evidence of binding

Q: And the Kd [2]?
A: 2490 nM

Q: What about the “calculated KD for BAD lower than observed for all other proteins” value ([3]; E763/D766/D770A versus all other proteins) of the same compound?
A: about 10 fold

Q: What about the “n (stoichiometry)” value [3] of the same compound?
A: 1.00 + /− 0.13

Q: What about the KD [3] of the same compound?
A: showed evidence of binding

Q: And the Kd [3]?
A: 380 nM

Q: And the “exchange of PARP-1 from labeled to unlabeled competitor DNA” value (PARP-1 WT)?
A: greatly prevented the exchange

Q: How did the KD (full-length PARP-1 WT; FL WT 40 μM, without DNA) turn out when NC(=O)c1ccccc1 [benzamide] was run?
A: bound to benzamide in the absence of DNA

Q: And the Kd (full-length PARP-1 WT; FL WT 40 μM, without DNA)?
A: 2320 nM

Q: And the “n (stoichiometry)” value (full-length PARP-1 WT; FL WT, without DNA)?
A: 0.88 + /− 0.01

Q: What about the “n (stoichiometry)” value [2] of the same compound?
A: 0.81 + /− 0.14

Q: What about the KD [2] of the same compound?
A: also bound to benzamide similarly

Q: And the Kd [2]?
A: 2810 nM

Q: What about the “n (stoichiometry)” value [3] of the same compound?
A: 0.89 + /− 0.07

Q: And the KD [3]?
A: also bound to benzamide similarly

Q: And the Kd [3]?
A: 2990 nM

Q: And the “exchange of PARP-1 from labeled to unlabeled competitor DNA” value (PARP-1 WT)?
A: did not affect PARP-1 release
